US20020028938A1, “Prostaglandin endoperoxide H synthase biosynthesis inhibitors” (priority 1997, published 2002)
Each block holds one compound with its values, some of them ahead of it.

Assays:
[1] = target: T1, recombinant human Cox-1 (r-hu Cox1) (Homo sapiens, UniProt P23219); test: Recombinant human PGHS-1 enzyme assay (RHUCX1); assay type: biochemical
T1 construct: made in house; host or cells: baculovirus/Sf9 insect cells (microsomes)
Experimental: (§1) To compare the mean responses of the treatment groups, analysis of variance was applied. Percent inhibition values were determined by comparing the individual treatment mean values to the mean of the control group. Linear regression was used to estimate IC50's/ED50's in appropriate assays.
(§2) EIA reagents for prostaglandin determination were purchased from Perseptive Diagnostics, (Cambridge, Mass.). Prostaglandin E2 (PGE2) levels in lavage fluids were determined after the samples were dried under nitrogen and reconstituted with assay buffer. PGE2 levels in enzyme assays or cell culture media were measured against standards prepared in the same milieu. The immunoassays were conducted as recommended by the manufacturer. The EIA was conducted in 96 well microtiter plates (Nunc Roskilde, Denmark) and optical density was measured using a microplate reader (Vmax, Molecular Devices Corp., Menlo Park, Calif.).
(§3) Inhibition of prostaglandin biosynthesis in vitro was evaluated using recombinant human Cox-1 (r-hu Cox1) and Cox-2 (r-hu Cox-2) enzyme assays. […] The reaction was allowed to run for 2.5 minutes at room temperature prior to quenching with HCl and neutralization with NaOH. PGE2 production in the presence and absence of the drug was determined by EIA analysis. The EIA was conducted in 96 well microtiter plates (Nunc Roskilde, Denmark) and optical density was measured using a microplate reader (Vmax, Molecular Devices Corp., Menlo Park, Calif.). EIA reagents for prostaglandin determination were purchased from Perseptive Diagnostics (Cambridge, Mass.). PGE2 levels were measured against standards prepared in the same milieu. The immunoassays were conducted as recommended by the manufacturer.

[2] = target: T2, recombinant human Cox-2 (r-hu Cox-2) (Homo sapiens, UniProt P35354); test: Recombinant human PGHS-2 enzyme assay (RHUCX2); assay type: biochemical; conditions: for IC50: read-out: RHUCX2 IC50 (parenthetical value)
T2 construct: made in house; host or cells: baculovirus/Sf9 insect cells (microsomes)
T2 sequence (P35354 18-604): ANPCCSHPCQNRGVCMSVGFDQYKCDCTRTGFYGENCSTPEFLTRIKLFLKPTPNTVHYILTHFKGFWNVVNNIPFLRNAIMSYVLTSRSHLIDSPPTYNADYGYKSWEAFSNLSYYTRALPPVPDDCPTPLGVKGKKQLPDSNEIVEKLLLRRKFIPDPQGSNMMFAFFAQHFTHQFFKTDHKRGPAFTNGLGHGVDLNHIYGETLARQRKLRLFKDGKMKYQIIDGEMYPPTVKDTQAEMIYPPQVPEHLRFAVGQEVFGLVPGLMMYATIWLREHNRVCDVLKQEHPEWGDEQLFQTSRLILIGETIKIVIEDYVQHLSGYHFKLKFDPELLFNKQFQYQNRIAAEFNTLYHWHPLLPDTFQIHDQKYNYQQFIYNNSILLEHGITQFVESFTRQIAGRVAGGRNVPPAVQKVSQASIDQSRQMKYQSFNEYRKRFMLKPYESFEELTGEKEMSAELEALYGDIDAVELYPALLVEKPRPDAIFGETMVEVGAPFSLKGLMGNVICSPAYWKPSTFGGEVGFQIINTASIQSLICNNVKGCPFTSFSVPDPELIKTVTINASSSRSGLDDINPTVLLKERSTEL
Experimental: as §1, §2, §3

[3] = 100 μM, read-out: RHUCX1 % Inh. at Dose
[4] = 0.1 μM, read-out: RHUCX2 % Inh. at Dose
[5] = 1 μM, read-out: RHUCX2 % Inh. at Dose

T1 sequence (P23219 24-599): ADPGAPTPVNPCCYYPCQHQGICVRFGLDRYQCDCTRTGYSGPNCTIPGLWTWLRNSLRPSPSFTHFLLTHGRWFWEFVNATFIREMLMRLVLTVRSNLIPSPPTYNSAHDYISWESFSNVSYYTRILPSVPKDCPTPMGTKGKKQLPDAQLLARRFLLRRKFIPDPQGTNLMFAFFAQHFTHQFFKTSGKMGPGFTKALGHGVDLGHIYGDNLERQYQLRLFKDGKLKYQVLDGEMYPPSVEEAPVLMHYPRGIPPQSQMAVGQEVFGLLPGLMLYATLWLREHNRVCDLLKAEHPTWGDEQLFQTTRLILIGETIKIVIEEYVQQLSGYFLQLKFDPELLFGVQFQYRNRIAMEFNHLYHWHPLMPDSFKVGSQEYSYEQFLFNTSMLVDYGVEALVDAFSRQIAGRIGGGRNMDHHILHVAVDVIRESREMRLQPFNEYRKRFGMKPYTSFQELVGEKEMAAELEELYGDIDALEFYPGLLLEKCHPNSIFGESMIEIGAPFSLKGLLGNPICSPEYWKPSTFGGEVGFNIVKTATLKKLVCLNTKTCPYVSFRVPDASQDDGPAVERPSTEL

inhibition at 100 µM [1, 3]: 8%
inhibition at 10 µM ([2]; 10 μM, read-out: RHUCX2 % Inh. at Dose): 2%
Compound: O=c1c(-c2ccc(F)cc2)c(-c2ccc(S(=O)(=O)C(F)(F)F)cc2)cnn1Cc1ccccc1 [Example 260, 2-Benzyl-4-(4-fluorophenyl)-5-[4-(trifluoromethylsulfonyl)phenyl]-3(2H)-pyridazinone]

inhibition at 1 µM ([1]; 1 μM, read-out: RHUCX1 % Inh. at Dose): 38%
inhibition at 100 µM [1, 3]: 51%
inhibition at 0.1 µM [2, 4]: 90%
inhibition at 1 µM [2, 5]: 96%
Compound: COc1c(F)cc(-c2c(-c3ccc(S(C)(=O)=O)cc3)cnn(CC(F)(F)F)c2=O)cc1F [Example 220, 2-(2,2,2-Trifluoroethyl)-4-(3,5-difluoro-4-methoxyphenyl)-5-[4-(methylsulfonyl)phenyl]-3(2H)-pyridazinone]

RHUCX1 % Inh. at Dose (μM) ([1]; 1 μM): 60 @ 1%
RHUCX1 % Inh. at Dose (μM) ([1]; 10 μM): 57 @ 10%
RHUCX2 % Inh. at Dose (μM) ([2]; 0.01 μM): 56 @ 0.01%
RHUCX2 % Inh. at Dose (μM) ([2]; 0.1 μM): 65 @ 0.1%
RHUCX2 % Inh. at Dose (μM) ([2]; 1 μM): 76 @ 1%
Compound: Cc1ccc(-c2c(-c3ccc(S(N)(=O)=O)cc3)cnn(-c3ccc(F)cc3)c2=O)cc1F [Example 387]

RHUCX1 % Inh. at Dose (μM) ([1]; 100 μM): 7 @ 100%
RHUCX2 % Inh. at Dose (μM) ([2]; 1 μM): 4 @ 1%
RHUCX2 % Inh. at Dose (μM) ([2]; 10 μM): 51 @ 10%
Compound: CS(=O)(=O)c1ccc(-c2cnn(CC(F)(F)F)c(=O)c2Nc2ccc(F)cc2F)cc1 [Example 314]

RHUCX1 % Inh. at Dose (μM) ([1]; 100 μM): 0 @ 100%
RHUCX2 % Inh. at Dose (μM) ([2]; 0.1 μM): 92 @ 0.1%
RHUCX2 % Inh. at Dose (μM) ([2]; 1 μM): 99 @ 1%
Compound: CS(=O)(=O)c1ccc(-c2cnn(Cc3ccc(Cl)s3)c(=O)c2-c2ccc(F)cc2)cc1 [Example 42]

IC50 ([1]; read-out: RHUCX1 IC50 (parenthetical value)): 269 nM
inhibition at 0.01 µM ([2]; 0.01 μM, read-out: RHUCX2 % Inh. at Dose): 38%
inhibition at 0.1 µM [2, 4]: 81%
inhibition at 1 µM [2, 5]: 92%
Compound: CC(C)CCCc1c(-c2ccc(S(C)(=O)=O)cc2)cnn(-c2cccc(Cl)c2)c1=O [Example 421, 2-(3-Chlorophenyl)-4-(4-methylpentyl)-5-[4-(methylsulfonyl)phenyl]-3(2H)-pyridazinone]

inhibition at 100 µM [1, 3]: 20%
inhibition at 0.1 µM [2, 4]: 75%
inhibition at 1 µM [2, 5]: 90%
Compound: Cc1ccc(-c2c(-c3ccc(S(C)(=O)=O)cc3)cnn(CC(F)(F)F)c2=O)cc1F [Example 219, 2-(2,2,2-Trifluoroethyl)-4-(3-fluoro-4-methylphenyl)-5-[4-(methylsulfonyl)phenyl]-3(2H)-pyridazinone]

RHUCX1 % Inh. at Dose (μM) ([1]; 1 μM): 76 @ 1%
RHUCX1 % Inh. at Dose (μM) ([1]; 10 μM): 82 @ 10%
RHUCX1 % Inh. at Dose (μM) ([1]; 100 μM): 53 @ 100%
RHUCX2 % Inh. at Dose (μM) ([2]; 0.1 μM): 37 @ 0.1%
RHUCX2 % Inh. at Dose (μM) ([2]; 1 μM): 52 @ 1%
Compound: CC(C)=CCOc1c(-c2ccc(S(C)(=O)=O)cc2)cnn(-c2ccc(F)cc2)c1=O [Example 422]

RHUCX1 % Inh. at Dose (μM) ([1]; 1 μM): 9 @ 1%
RHUCX1 % Inh. at Dose (μM) ([1]; 10 μM): 49 @ 10%
RHUCX2 % Inh. at Dose (μM) ([2]; 0.3 μM): 87 @ 0.3%
Compound: CS(=O)(=O)c1ccc(-c2cnn(CC(F)(F)F)c(=O)c2OC2CCCCC2)cc1 [Example 84]

RHUCX1 % Inh. at Dose (μM) ([1]; 100 μM): 0 @ 100%
RHUCX2 % Inh. at Dose (μM) ([2]; 0.1 μM): 35 @ 0.1%
RHUCX2 % Inh. at Dose (μM) ([2]; 1,000 μM): 97 @ 1,000%
Compound: CS(=O)(=O)c1ccc(-c2cnn(CC(F)=C(F)F)c(=O)c2-c2ccc(F)cc2)cc1 [Example 88]

RHUCX1 % Inh. at Dose (μM) ([1]; 1 μM): 68 @ 1%
RHUCX2 % Inh. at Dose (μM) ([2]; 0.1 μM): 36 @ 0.1%
RHUCX2 % Inh. at Dose (μM) ([2]; 1 μM): 34 @ 1%
Compound: Cc1nn(CC(F)(F)F)c(=O)c(-c2ccc(F)cc2)c1-c1ccc(S(C)(=O)=O)cc1 [Example 64]

RHUCX1 % Inh. at Dose (μM) ([1]; 100 μM): 0 @ 100%
RHUCX2 % Inh. at Dose (μM) ([2]; 0.1 μM): 2 @ 0.1%
RHUCX2 % Inh. at Dose (μM) ([2]; 1 μM): 73 @ 1%
Compound: C#CCn1ncc(-c2ccc(S(C)(=O)=O)cc2)c(-c2ccc(F)cc2)c1=O [Example 48, 2-(Propargyl)-4-(4-fluorophenyl)-5-[4-(methylsulfonyl)phenyl]-3(2H)-prridazinone]

RHUCX1 % Inh. at Dose (μM) ([1]; 100 μM): 25 @ 100%
RHUCX2 % Inh. at Dose (μM) ([2]; 0.1 μM): 51 @ 0.1%
RHUCX2 % Inh. at Dose (μM) ([2]; 1 μM): 97 @ 1%
Compound: CS(=O)(=O)c1ccc(-c2cnn(-c3ccoc3)c(=O)c2-c2ccc(F)cc2)cc1 [Example 183, 2-(3-Furyl)-4-(4-fluorophenyl)-5-[4-(methylsulfonyl)phenyl]-3(2H)-pyrdazinone]

inhibition at 100 µM [1, 3]: 23%
inhibition at 0.1 µM [2, 4]: 77%
inhibition at 1 µM [2, 5]: 97%
Compound: CS(=O)(=O)c1ccc(-c2cnn(Cc3ccccc3)c(=O)c2-c2cc3ccccc3o2)cc1 [Example 318, 2-Benzyl-4-(2-benzofuranyl)-5-[4-(methylsulfonyl)phenyl]-3(2H)-pyridazinone]

RHUCX1 % Inh. at Dose (μM) ([1]; 100 μM): 7 @ 100%
RHUCX2 % Inh. at Dose (μM) ([2]; 0.01 μM): 33 @ 0.01%
RHUCX2 % Inh. at Dose (μM) ([2]; 0.1 μM): 58 @ 0.1%
RHUCX2 % Inh. at Dose (μM) ([2]; 1 μM): 75 @ 1%
Compound: CC(C)=CCCOc1c(-c2ccc(S(C)(=O)=O)cc2)cnn(-c2ccc(F)cc2)c1=O [Example 424]

RHUCX1 % Inh. at Dose (μM) ([1]; 100 μM): 1 @ 100%
RHUCX2 % Inh. at Dose (μM) ([2]; 1 μM): 49 @ 1%
RHUCX2 % Inh. at Dose (μM) ([2]; 10 μM): 84 @ 10%
Compound: CS(=O)(=O)c1ccc(-c2cnn(-c3cccc(Cl)c3)c(=O)c2C2CCCC2)cc1 [Example 362, 2-(3-Chlorophenyl)-4-(cyclopentyl)-5-[4-(methylonylsulfonyl)phenyl]-(2H)-pyridazinone]

RHUCX1 % Inh. at Dose (μM) ([1]; 100 μM): 1 @ 100%
RHUCX2 % Inh. at Dose (μM) ([2]; 0.1 μM): 53 @ 0.1%
RHUCX2 % Inh. at Dose (μM) ([2]; 1 μM): 76 @ 1%
RHUCX2 % Inh. at Dose (μM) ([2]; 10 μM): 85 @ 10%
Compound: CS(=O)(=O)c1ccc(-c2cnn(CC(F)(F)F)c(=O)c2Oc2cc(C(F)(F)F)ccc2F)cc1 [Example 263, 2-(2,2,2-Trifluoroethyl)-4-(2-fluoro-5-trifluoromethylphenoxy)-5-[4-(methylsulfonyl)phenyl]-3(2H)-pridazinone]

RHUCX1 % Inh. at Dose (μM) ([1]; 100 μM): 19 @ 100%
IC50 [2]: 920 nM
Compound: CS(=O)(=O)c1ccc(-c2cnn(CC#Cc3ccccc3)c(=O)c2-c2ccc(F)cc2)cc1 [Example 21, 2-(Phenylpropargyl)-4-(4-fluorophenyl)-5-[4-(methylsulfonyl)phenyl]-3(2H)-pyridazinone]

RHUCX1 % Inh. at Dose (μM) ([1]; 100 μM): ∠@ 100
RHUCX2 % Inh. at Dose (μM) ([2]; 0.1 μM): 36 @ 0.1%
RHUCX2 % Inh. at Dose (μM) ([2]; 1 μM): 45 @ 1%
RHUCX2 % Inh. at Dose (μM) ([2]; 10 μM): 45 @ 10%
Compound: CN(Cc1ccccc1)c1c(-c2ccc(S(C)(=O)=O)cc2)cnn(-c2cccc(Cl)c2)c1=O [Example 354, 2-(3-Chlorophenyl)-4-(N-methylbenzylamnino)-5-[4-(methylsulfonyl)phenyl]-3(2H)-pyridazinone]

RHUCX1 % Inh. at Dose (μM) ([1]; 100 μM): 15 @ 100%
IC50 [2]: 432 nM
Compound: 2-(2,2,2-Trifluoroethyl)-4-(4-methoxyphenoxy)-5-[4-(methylsulfonyl)phenyl]-3(2H)-pyridazinone [Example 262]

inhibition at 100 µM [1, 3]: 0%
IC50 [2]: 812 nM
Compound: CS(=O)(=O)c1ccc(-c2cnn(CC(F)(F)F)c(=O)c2-c2ccc(C(F)(F)F)cc2)cc1 [Example 213, 2-(2,2,2-Trifluoroethyl)-4-(4-trifluoromethylphenyl)-5-[4-(methylsulfonyl)phenyl]-3(2H)-pridazinone]

RHUCX1 % Inh. at Dose (μM) ([1]; 100 μM): 7 @ 100%
RHUCX2 % Inh. at Dose (μM) ([2]; 1,000 μM): 100 @ 1,000%
Compound: CS(=O)(=O)c1ccc(-c2cnn(Cc3ccsc3)c(=O)c2-c2ccc(F)cc2)cc1 [Example 60]

melting point: 245 to 248 °C
Compound: Cc1ccc(-c2c(-c3ccc(S(C)(=O)=O)cc3)cnn(-c3ccc(F)cc3)c2=O)cc1F [Example 250, 2-(4-Fluorophenyl)-4-(3-fluoro-4-methylphenyl)-5-[4-(methylsulfonyl)phenyl]-3(2H)-pyridazinone]

melting point: 196 to 199 °C
Compound: CS(=O)(=O)c1ccc(-c2cnn(-c3ccc(F)c(F)c3)c(=O)c2Oc2ccc(Br)cc2)cc1 [Example 282, 2-(3,4-Difluorophenyl)-4-(4-bromophenoxy)-5-[4-(methylsulfonyl)phenyl]-3(2H)-pyridazinone]

melting point: 154 to 156 °C
Compound: Cc1ccc(-c2c(-c3ccc(S(C)(=O)=O)cc3)cnn(CC(F)(F)F)c2=O)cc1 [Example 79, 2-(2,2,2-Trifluoroethyl)-4-(4-methylphenyl)-5-[4-(methylsulfonyl)phenyl]-3(2H)-pyridazinone]

melting point: 206 to 208 °C
Compound: NS(=O)(=O)c1ccc(-c2cnn(C3CC=CCC3)c(=O)c2-c2ccc(F)cc2)cc1 (centres unmarked) [Example 126]
